Test results as given in patent publication US4330527A, “Wound treatment agent” (priority 1979, dated 1982).
Entries after “also recorded” stand apart in the source; their conditions may differ.

How the values were obtained:
NPT [1] = type: biochemical, Clostridium perfringens ATCC 21510
[2] = system: granulation tissue in P.V.H.-sponge; design: species or system rats (Wistar strain, male); details: rat, in vivo
NPT [3] = type: biochemical, Clostridium perfringens ATCC 21510; remark: listed apart in the source
5'-nucleotidase = assay: Effects of metal ions and other chemical agents on nucleotidase activity; type: biochemical
epidermis (dorsal skin) = assay: Experiment 9: epidermization effect on dermatome-peeled dorsal skin; type: in vivo, rabbit; details: further examination
epidermis = details: literature; cited from earlier work
[4] = system: collagen in P.V.H.-sponge; assay: Experiment 6: weight of collagen (hydroxyproline) in the buried sponge; type: in vivo, rats; details: for Hydroxyproline: n = 8; for Hydroxyproline, % of control: control = 100%

Molecule: O=P(O)(O)OCC(O)CO (stereo not drawn) [α-glycerophosphate]
- action as phosphate donor (NPT [1]): not observed

Molecule: Cc1cn([C@H]2C[C@H](O)[C@@H](CO)O2)c(=O)[nH]c1=O [thymidine]
- action as phosphate acceptor (NPT [1]): phosphate acceptor

Molecule: O=c1ccn([C@H]2C[C@H](O)[C@@H](CO)O2)c(=O)[nH]1 [deoxyuridine]
- action as phosphate acceptor (NPT [1]): phosphate acceptor

Molecule: Nc1ncnc2c1ncn2[C@H]1C[C@H](O)[C@@H](COP(=O)(O)OP(=O)(O)OP(=O)(O)O)O1 [deoxyadenosine triphosphate]
- action as phosphate donor (NPT [1]): not observed

Molecule: O=c1ccn([C@@H]2O[C@H](CO)[C@@H](O)[C@H]2O)c(=O)[nH]1 [uridine]
- action as phosphate acceptor (NPT [1]): lowest activity as the phosphate acceptor

Molecule: Nc1ncnc2c1ncn2[C@@H]1O[C@H](COP(=O)(O)OP(=O)(O)OP(=O)(O)O)[C@@H](O)[C@H]1O [adenosine triphosphate]
- action as phosphate donor (NPT [1]): not observed

Molecule: CC(=O)OCC(=O)[C@@]1(O)CC[C@H]2[C@@H]3CCC4=CC(=O)C=C[C@]4(C)[C@H]3[C@@H](O)C[C@@]21C [Prednisolone acetate]
- (1) Wet weight [2]: 225 ± 58.9 mg
- (1)-(2) Liquid content [2]: 167.4 ± 52.2 mg
- (2) - sponge weight, Solid content [2]: 22.6 ± 9.6 mg
- (2) Dry weight [2]: 57.8 ± 9.9 mg
- Dry weight, % [2]: 91.2%
- Liquid content, % [2]: 68.4%
- Solid content, % [2]: 80.7%
- Wet weight, % [2]: 73.0%
- effect on weights / newly grown granulation tissue (in words) [2]: the dry weight, wet weight, quantity of exudate and weight of newly grown granulation tissue all fall below those with the control

Molecule: O=C(O)c1cc[c]([Hg][Cl])cc1 [p-chloromercuribenzoic acid]
- effect on NPT activity (NPT [3]): neither of them are inhibited
- effect on nucleotidase activity (5'-nucleotidase): neither of them are inhibited

Molecule: Nc1ccn([C@H]2C[C@H](O)[C@@H](CO)O2)c(=O)n1 [deoxycytidine]
- action as phosphate acceptor (NPT [1]): phosphate acceptor

Molecule: O=P(O)(O)OC[C@H]1OC(O)[C@H](O)[C@@H](O)[C@@H]1O (some centres unmarked) [glucose-6-phosphate]
- action as phosphate donor (NPT [1]): not observed

Molecule: [O]=[Zn] [zinc oxide]
- capability of epidermization (in words) (epidermis (dorsal skin)): synergistic effect with GF-70 to stimulate the epidermization

Molecule: 3-phosphoglycerophosphate
- action as phosphate donor (NPT [1]): not observed

Molecule: vitamin A
- effect on skin tissue / DNA synthesis in epidermis (epidermis): stimulates synthesis of DNA in the epidermis; also recorded: affect the growth and differentiation of the skin tissue

Molecule: Nc1ccn([C@@H]2O[C@H](CO)[C@@H](O)[C@H]2O)c(=O)n1 [cytidine]
- action as phosphate acceptor (NPT [1]): phosphate acceptor

Molecule: CN(CC(=O)O)C(=N)NP(=O)(O)O [creatine phosphate]
- action as phosphate donor (NPT [1]): not observed

B1: Albumin: egg albumin as the control (protein, UniProt P01012 2-386, looked up)
Ovalbumin: GSIGAASMEFCFDVFKELKVHHANENIFYCPIAIMSALAMVYLGAKDSTRTQINKVVRFDKLPGFGDSIEAQCGTSVNVHSSLRDILNQITKPNDVYSFSLASRLYAEERYPILPEYLQCVKELYRGGLEPINFQTAADQARELINSWVESQTNGIIRNVLQPSSVDSQTAMVLVNAIVFKGLWEKAFKDEDTQAMPFRVTEQESKPVQMMYQIGLFRVASMASEKMKILELPFASGTMSMLVLLPDEVSGLEQLESIINFEKLTEWTSSNVMEERKIKVYLPRMKMEEKYNLTSVLMAMGITDVFSSSANLSGISSAESLKISQAVHAAHAEINEAGREVVGSAEAGVDAASVSEEFRADHPFLFCIKHIATNAVLFFGRCVSP
- weight of collagen (in words) ([4]; 4th and 7th days, vs control): no significant difference
- Hydroxyproline ([4]; 4 days after burying): 132.3 ± 18.0 μg/sponge
- Hydroxyproline, % of control ([4]; 4 days after burying): 105%
- Hydroxyproline ([4]; 7 days after burying): 331.7 ± 18.8 μg/sponge
- Hydroxyproline, % of control ([4]; 7 days after burying): 146%
